Test results as given in PubChem BioAssay (NCI).
“And” between values parts separate entries of the source, which are not always exact repeats. Equal values may be shown once.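 Values below derive from 48-hour exposures of cells grown in 96-well plates, with endpoints linearly interpolated between the two concentrations bracketing the appropriate inhibition level. GI50: concentration for 50% inhibition of growth. TGI is the concentration that stops growth completely.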

Tests used:
Assay in all cases: NCI anticancer screen, dose series, 48 h
[1] = tested on: A498 renal
[2] = tested on: ACHN renal
[3] = tested on: HT29 colon
[4] = tested on: K-562 leukemia
[5] = tested on: NCI-H522 lung
[6] = tested on: SF-539 CNS
[7] = tested on: SK-OV-3 ovarian
[8] = tested on: SN12C renal
[9] = tested on: UACC-257 melanoma
[10] = tested on: UO-31 renal

Structure (SMILES)	GI50 [1]	TGI [1]	GI50 [2]	TGI [2]	GI50 [3]	TGI [3]	GI50 [4]	GI50 [5]	TGI [5]	GI50 [6]	TGI [6]	GI50 [7]	TGI [7]	GI50 [8]	TGI [8]	GI50 [9]	TGI [9]	GI50 [10]	TGI [10]	TGI [4]
O=C(Nc1cccc(-n2ccc3c(NC(=O)c4ccccc4)nccc32)c1)c1ccc(Cl)c(Cl)c1	0.13 µM	0.735 µM	0.177 µM	1.71 µM	0.0833 µM	0.84 µM	0.0551 µM	0.0786 µM	1.22 µM	0.197 µM	0.952 µM	0.0956 µM	1.1 µM	0.38 µM	1.78 µM	1.2 µM	2.98 µM	0.573 µM	2.18 µM	
CCN(CC)CCCNc1nccc2c(C)c3[nH]c4ccncc4c(=O)c3cc12		24 µM		13 µM		12.8 µM			1.86 µM		11.2 µM		16 µM		8.9 µM		31.7 µM		43.4 µM	13 µM
O=[N+]([O-])c1cc(C(F)(F)F)cc2n[se]nc12		31.5 µM		5.89 µM		21.9 µM			6.54 µM		7.33 µM		27.5 µM		10.6 µM		4.56 µM		14.1 µM	5.14 µM
CCN(CC)CCNc1ccc(N=Nc2cnc3ccccc3c2)c2ccccc12	1.65 µM	3.05 µM	1.61 µM	3.15 µM	1.38 µM	2.67 µM	1.03 µM	1.91 µM	3.54 µM	1.67 µM	3.07 µM	1.72 µM	3.2 µM	1.64 µM	3.16 µM	1.96 µM	3.49 µM	1.51 µM	3.05 µM	2.3 µM
C=C(C)C1CC=C(C)C(O)([C@@]2(O)C[C@H](C(=C)C)CC=C2C)C1 (stereo partly specified)		58.2 µM		47.7 µM		37.7 µM			41.5 µM		42.1 µM		64.1 µM		33.2 µM		42.8 µM		55.9 µM	49.4 µM
O=C(O)C1C2C=CC(O2)C1C(=O)NCc1ccncc1 (stereo unspecified)		> 100 µM		> 100 µM		> 100 µM			> 100 µM		> 100 µM		> 100 µM		> 100 µM		> 100 µM		> 100 µM	> 100 µM
c1ccc(N2CCN(CCCN3CCc4c([nH]c5ccccc45)C3c3cccnc3)CC2)cc1 (stereo unspecified)		> 100 µM		> 100 µM		> 100 µM			> 100 µM		> 100 µM		> 100 µM		99.2 µM		> 79.9 µM		> 100 µM	> 65.6 µM
CC[C@H](C)C(=O)O[C@H]1CCC=C2C=C[C@H](C)[C@H](CC[C@@H]3C[C@@H](O)CC(=O)O3)[C@H]21	0.183 µM	1.36 µM	1.46 µM	5.18 µM	28 µM	> 100 µM	22 µM	2.41 µM	39.6 µM	12.8 µM	> 100 µM	5.96 µM	> 100 µM	3.88 µM	> 100 µM	73.3 µM	> 100 µM	5.29 µM	> 100 µM	> 100 µM
Cc1cc2oc(=O)cc(OC/C=C3/CCC(=O)O3)c2cc1C	2.14 µM	12 µM	0.804 µM	2.04 µM	2.9 µM	12.7 µM	8.23 µM	1.4 µM	2.97 µM	1.34 µM	5.7 µM	12.8 µM	26.1 µM	5.2 µM	22.5 µM	12.3 µM	26.4 µM	1.49 µM	4.88 µM	34.1 µM
CC(C)c1ccc(C(O)(C(=O)O)c2ccc(C(C)C)cc2)cc1		> 100 µM		> 100 µM		> 100 µM			> 100 µM		> 100 µM		> 100 µM		> 100 µM		> 100 µM		> 100 µM	> 100 µM
C=C1C(=O)O[C@H]2[C@H]1CC/C(CNC(=O)C(C)c1ccc(CC(C)C)cc1)=C\CC[C@@]1(C)O[C@@H]21 (stereo partly specified)	2.22 µM	8.38 µM	1.45 µM	2.76 µM	1.79 µM	3.66 µM	2.29 µM	1.63 µM	3.5 µM	1.58 µM	3.07 µM	12.3 µM	24.8 µM	1.63 µM	3.26 µM	1.56 µM	3.12 µM	1.33 µM	2.6 µM	10.4 µM
C=C1CCCC2OC(OC)CCC12 (stereo unspecified)		> 100 µM		> 100 µM		> 100 µM			> 100 µM		> 100 µM		> 100 µM		> 100 µM		> 100 µM		> 100 µM	> 100 µM
O=C1C(c2ccccc2)=[N+]([O-])c2cc([N+](=O)[O-])ccc21		> 100 µM		56.9 µM		47.9 µM			29.1 µM		57.3 µM		> 100 µM		59.6 µM		40.5 µM		> 100 µM	58.5 µM
N#Cc1ccc(C(=O)c2cnn(-c3ccc(F)cc3)c2N)cc1	> 25 µM	> 25 µM	> 25 µM	> 25 µM	> 25 µM	> 25 µM	> 25 µM	> 25 µM	> 25 µM	> 25 µM	> 25 µM	> 25 µM	> 25 µM	> 25 µM	> 25 µM	> 25 µM	> 25 µM	> 25 µM	> 25 µM	> 25 µM
C=C1C(=O)O[C@H]2C3OC3(C)CC/C=C(/C(=O)OC)[C@@H](OC(C)=O)[C@H](OC(=O)C3(C)OC3C)[C@H]12 (stereo partly specified)	1.69 µM and 2.85 µg/mL	4.26 µM and 5.4 µg/mL	2.07 µM and 434 nM and 0.944 µg/mL	6.36 µM and 3.12 µM and 2.75 µg/mL	1.29 µM and 1.06 µM and 1.32 µg/mL	2.55 µM and 2.3 µM and 4.03 µg/mL	416 nM and 0.359 µg/mL	0.0891 µM and 0.122 µM	0.242 µM and 0.241 µM	2.88 µM and 1.98 µM and 3.21 µg/mL	7.5 µM and 6.28 µM and 7.06 µg/mL	9.25 µM and 26.5 µg/mL	18.9 µM and 48 µg/mL	1.5 µM and 2.97 µM and 2.45 µg/mL	4.68 µM and 10.4 µM and 6.03 µg/mL	1.42 µM and 0.434 µM	2.96 µM and 1.33 µM	2.29 µM and 2.04 µM and 2.66 µg/mL	6.69 µM and 9.13 µM and 5.8 µg/mL	1.15 µM and 2.25 µM and 1.15 µg/mL
Cc1c(C(=O)/C=C/c2ccc(Cl)cc2)nnn1-c1ccnc2c(C(F)(F)F)cccc12	> 100 µM	> 100 µM	51.6 µM	> 100 µM	8.24 µM	> 100 µM	8.67 µM	27.6 µM	> 100 µM	51.9 µM	> 100 µM	42.1 µM	92.9 µM	16.3 µM	> 100 µM	30.2 µM	> 100 µM	33.5 µM	> 100 µM	> 100 µM
CCCCNP1(NCCCC)=NP(NCCCC)(NCCCC)=NP(NCCCC)(NCCCC)=NP(NCCCC)(NCCCC)=N1	1.93 µM	8.01 µM	2.5 µM	> 32.9 µM	0.213 µM	17.7 µM	0.103 µM	0.287 µM	4.3 µM	2.89 µM	8.55 µM	1.07 µM	9.75 µM	0.331 µM	12.5 µM	1.23 µM	5.55 µM	2.81 µM	14.4 µM	3.83 µM
CCc1nc(N)nc(N)c1-c1ccc(N(C)Cc2ccccc2)c([N+](=O)[O-])c1		19.8 µM		36.1 µM		14.6 µM			14.6 µM		9.97 µM		33.6 µM		41.7 µM		14.2 µM		16 µM	3.98 µM
O=c1oc2ccc(I)cc2c(=O)n1-c1ccc(I)cc1F	0.166 µM	0.546 µM	0.616 µM	11.7 µM	3.43 µM	15.3 µM	0.436 µM	0.327 µM	4.52 µM	0.484 µM	4.29 µM	0.601 µM	2.71 µM	0.404 µM	6.49 µM	0.522 µM	5.6 µM	0.268 µM	2.41 µM	> 100 µM
COc1cc2c(cc1OC)-c1c(c3ccc([N+](=O)[O-])cc3c(=O)n1CCCN=[N+]=[N-])C2=O	40.7 µM	> 100 µM	19.4 µM	> 100 µM	> 100 µM	> 100 µM	19.6 µM	11.7 µM	> 100 µM	36.4 µM	> 100 µM	> 100 µM	> 100 µM	46.7 µM	> 100 µM	> 100 µM	> 100 µM	42.4 µM	> 100 µM	> 100 µM
COc1cc(C(=O)c2cnc(-c3ccc4cc[nH]c4c3)[nH]2)cc(OC)c1OC	0.0136 µM	0.0788 µM	0.0973 µM	6.11 µM	0.0316 µM	0.108 µM	0.0173 µM	< 0.0128 µM	0.0913 µM	0.0214 µM	0.0623 µM	0.0358 µM	1.93 µM	0.066 µM	14.7 µM	2.03 µM	17.4 µM	0.153 µM	5.11 µM	8.74 µM
COc1ccc2c(c1)C(=O)/C(=C/c1cccc(OCC(=O)c3ccc([N+](=O)[O-])cc3)c1)CO2	14.3 µM	27.3 µM	2.32 µM	6.41 µM	1.93 µM	4.6 µM	1.96 µM	3.5 µM	9.41 µM	2.33 µM	6.12 µM	10.5 µM	23 µM	2.92 µM	11.4 µM	3.73 µM	10.2 µM	1.47 µM	4.02 µM	> 22.4 µM
O=C(CC1(O)C(=O)Nc2c(Cl)cc(Cl)cc21)c1ccc([N+](=O)[O-])cc1 (stereo unspecified)		> 67.9 µM		> 100 µM		> 100 µM			46.4 µM		> 68.7 µM		> 100 µM		> 68 µM		> 54.3 µM		35.1 µM	> 100 µM
N#Cc1ccc(O)c(C2=NCC(c3ccc(-c4ccccc4)cc3)O2)c1 (stereo unspecified)	0.402 µM	18.5 µM	0.418 µM	12.4 µM	0.866 µM	24.1 µM	0.338 µM	0.4 µM	10.6 µM	0.517 µM	11.4 µM	0.664 µM	14.4 µM	0.606 µM	16.9 µM	1.15 µM	7.96 µM	0.406 µM	4.13 µM	> 100 µM
CN(CO)c1nc(N(C)CO)nc(N(C)CO)n1		60.7 µM and 54 µM		79.2 µM and 75.6 µM	26.3 µM	71.2 µM and 144 µM	27.2 µM		43.9 µM and 53.7 µM	23.6 µM and 17.2 µM	52.4 µM and 36.9 µM	59.1 µM	> 82.1 µM and 54.2 µM	27.6 µM and 19.5 µM	70.5 µM and 57.8 µM	20.6 µM and 21.8 µM	40.7 µM and 44.4 µM	27.6 µM	50.3 µM and 56.2 µM	140 µM
Cc1ccc(-c2nc3ccccc3c(=O)n2NC2OC(CO)C(O)C(O)C2O)cc1 (stereo unspecified)		> 100 µM		> 100 µM		> 100 µM			> 100 µM		> 100 µM		> 100 µM		> 100 µM		> 100 µM		> 100 µM	> 100 µM
Fc1ccc(-c2c(-c3ccncc3)[nH]c3cccnc23)cc1	> 14.8 µM	> 25 µM	1.63 µM	> 25 µM	8.18 µM	> 25 µM	> 23.1 µM	> 19.8 µM	> 25 µM	> 25 µM	> 25 µM	10.6 µM	> 25 µM	18.8 µM	> 25 µM	> 25 µM	> 25 µM	3.2 µM	> 25 µM	> 25 µM
CC(Oc1ccc2c(=O)cc(-c3ccccc3)oc2c1)C(=O)O (stereo unspecified)		> 100 µM		> 100 µM		> 100 µM			> 100 µM		> 100 µM		> 100 µM		> 100 µM		> 100 µM		> 100 µM	> 100 µM
